The record followed here is PMC11530130, “Peripherally restricted PICK1 inhibitor mPD5 ameliorates pain behaviors in murine inflammatory and neuropathic pain models” (JCI Insight, 2024).

The data set in a line: Mass spectrometry biodistribution (plasma, CSF, spinal cord, brain). The format is in vivo, mouse. How it is done: K2 tubes at 5 min, 30 min, 1 hour, 5 hours, 12 hours, 24 hours, and 48 hours and centrifuged (app 4 ℃, 3200 g, 10 min) for collection of plasma. Plasma was transferred to 96 well plates and quick-frozen over dry ice and kept at -60 ℃ until LC-MS/MS analysis. For LC-MS/MS analysis plasma with 0.25% Triton X100 in 50% MeOH/water (6 µL) was quenched with 160 µL of IS1 (internal standard in MeOH (Labetalol & tolbutamide & Verapamil & dexamethasone & glyburide & Celecoxib 100 ng/mL for each)) and the mixture was vortexed for 10 min at 800 rpm and centrifuged for 15 min at 3220 × g at 4 ℃. […] Plasma half-lives were determined from three points in the elimination phase. In a separate experiment, biodistribution was assessed (plasma, CSF, spinal cord, whole brain) at two hours after single dose of 10 µmol/kg or one hour after last injection in the repeated administration paradigm (10 µmol/kg followed by four s.c. administrations of 2 µmol/kg with one hour between). […] Plasma, CSF, and tissue samples (kept at 4 ℃) were processed and analysed as described above.
Concentration 10 µmol/kg: Wild type mice were habituated to the experimental room for a minimum of 60 min before initiation of the experiment. […] A video camera placed above the open field recorded the animals’ behaviour and Ethovision XT 13 (Noldus) was used to track the distance travelled by the […]

`CCCCCCCCCCCCCC(=O)N(CCOCCOCCC(=O)N[C@@H](Cc1c[nH]cn1)C(=O)N[C@@H](Cc1c[nH]c2ccccc12)C(=O)N[C@@H](CC(C)C)C(=O)N[C@@H](CCCCN)C(=O)N[C@H](C(=O)O)C(C)C)CCOCCOCCC(=O)N[C@@H](Cc1c[nH]cn1)C(=O)N[C@@H](Cc1c[nH]c2ccccc12)C(=O)N[C@@H](CC(C)C)C(=O)N[C@@H](CCCCN)C(=O)N[C@H](C(=O)O)C(C)C` [mPD5, myristoyl-NPEG4-(HWLKV)2] came in with a level at 1 h (C57BL/6NRj, mouse, plasma, sc, 10 umol/kg, 1 hour after s.c. 10 μmol/kg, LLOQ = 2 ng/mL, n = 3) of 3280 ± 615 ng/mL. Besides, the “detection in CSF, spinal cord, and brain tissue by mass spectrometry” value (after s.c. injection in mice) is on record as “did not detect”.
